Reference: patent publication US12569543B2, “Semaglutide in cardiovascular conditions” (Novo Nordisk A/S, priority 2016, dated 2026)

Tested on: human subjects with type 2 diabetes
Assay: Long-term randomised, double-blind, placebo-controlled cardiovascular outcomes trial with semaglutide
[1] = Table 4, coronary and peripheral, semaglutide arms
[2] = Table 4, individual component of MACE, semaglutide arms
[3] = Table 4, individual component of MACE, semaglutide vs placebo, Cox model
[4] = Table 4, MACE incl. revascularisation, hospitalisation for UAP and heart failure, semaglutide arms
[5] = Table 4, semaglutide vs placebo, Cox model
[6] = Table 5, under first MACE (CV death, non-fatal MI, non-fatal stroke), semaglutide arms
[7] = Table 5, MACE = cardiovascular death, non-fatal MI, non-fatal stroke, all subjects, semaglutide arms
[8] = Table 5 subgroup BMI >30 kg/m^2, semaglutide arms
[9] = Table 5 subgroup BMI ≤30 kg/m^2, semaglutide arms
[10] = Table 5 subgroup Ethnic origin: Asian, semaglutide arms
[11] = Table 5 subgroup Ethnic origin: Black or African-American, semaglutide arms
[12] = Table 5 subgroup Ethnic origin: Other, semaglutide arms
[13] = Table 5 subgroup Ethnic origin: White, semaglutide arms
[14] = Table 5 subgroup Heart failure NYHA class I or no heart failure, semaglutide arms
[15] = Table 5 subgroup Heart failure NYHA class II or III, semaglutide arms
[16] = Table 5 subgroup Sex: Female, semaglutide arms
[17] = Table 5 subgroup Sex: Male, semaglutide arms

Procedure: A long-term randomised, double-blind, placebo-controlled, four-armed parallel-group, multicentre, multi-national, safety and efficacy trial was carried out to evaluate cardiovascular and other long-term outcomes with semaglutide in 3,297 human subjects with type 2 diabetes.
The subjects were randomised to receive once weekly treatment doses of 0.5 mg semaglutide, 1.0 mg semaglutide, or volume-matched placebo, as an add-on to their standard-of-care treatment, wherein administration started with an initial dose escalation step at 0.25 mg semaglutide once weekly for 4 weeks, and for the 1.0 mg semaglutide group an additional 4 week period at 0.5 mg semaglutide once weekly, or their volume-matched placebo, as shown in Table 1. Additional glucose-lowering medications were allowed to be added to the anti-diabetic regimen to maintain target glycaemic control at the discretion of investigator.
Semaglutide was administered in the form of an aqueous solution comprising semaglutide or placebo, both using a 3 ml disposable pen-injector. This pen-injector was identical for the semaglutide and placebo administrations. This aqueous solution contained 1.34 mg/ml semaglutide, 1.42 mg/ml disodium phosphate dihydrate, 14.0 mg/ml propylene glycol, 5.5 mg/ml phenol, at pH 7.40.
Injections were administered in the thigh, abdomen or upper arm, at any time of day irrespective of meals. The injections were administered on the same day of the week during the trial.
In this trial, “clinical evidence of cardiovascular disease” was present when the subject fulfilled at least one criterion selected from the group consisting of a) to h): • a) prior myocardial infarction, • b) prior stroke or transient ischaemic attack, • c) prior coronary, carotid or peripheral arterial revascularisation, • d) >50% stenosis on angiography or imaging of coronary, carotid or lower extremity arteries, • e) history of symptomatic coronary heart disease (documented by e.g. positive exercise stress test or any cardiac imaging or unstable angina with ECG changes), • f) asymptomatic cardiac ischemia (e.g. documented by positive nuclear imaging test or exercise test or stress echo or any cardiac imaging), • g) heart failure New York Heart Association (NYHA) class and • h) chronic renal impairment (documented (prior to screening) by estimated glomerular filtration rate (eGFR)<60 mL/min/1.73 m^2 per MDRD).
In this trial, “subclinical evidence of cardiovascular disease” was present when the subject fulfilled at least one criterion selected from the group consisting of i) to l): • i) persistent microalbuminuria (30-299 mg/g) or proteinuria, • j) hypertension and left ventricular hypertrophy by ECG or imaging, • k) left ventricular systolic or diastolic dysfunction by imaging, and • l) ankle/brachial index<0.9.
The results of this trial may be presented herein as a number or fraction of subjects experiencing an event. […] The term “hazard ratio” (also referred to as “HR”) as used herein means the instantaneous risk ratio of experiencing an event when administered semaglutide compared to placebo which are the two treatments in this trial. An upper limit of the 95% confidence interval (CI) for the HR of less than 1.00 means that the estimated treatment ratio between semaglutide and placebo with respect to the event of interest is statistically significant in favour of semaglutide on a 5% significance level.

Substance: N^6.26-{18-[N-(17-carboxy-heptadecanoyl)-L-γ-glutamyl]-10-oxo-3,6,12,15-tetraoxa-9,18-diazaoctadecanoyl}-[8-(2-amino-2-propanoic acid),34-L-arginine]human glucagon-like peptide 1(7-37) [Semaglutide]
- Time to first non-fatal myocardial infarction (Kaplan-Meier plot) (FIG. 1, after a certain period of chronic treatment, vs placebo): particularly good effect
- Time to first revascularisation (Kaplan-Meier plot) (FIG. 2, after a certain period of chronic treatment, vs placebo): particularly good effect
- Revascularisation, N subjects with at least one event [1]: 83
- Revascularisation, percentage of subjects with at least one event [1]: 5.0%
- Revascularisation, hazard ratio (Table 4, coronary and peripheral, semaglutide vs placebo, Cox model): 0.65
- Cardiovascular death, N subjects with event [2]: 44
- Cardiovascular death, percentage of subjects with event [2]: 2.7%
- Myocardial infarction, non-fatal, N subjects with at least one event [2]: 47
- Myocardial infarction, non-fatal, percentage of subjects with at least one event [2]: 2.9%
- Stroke, non-fatal, N subjects with at least one event [2]: 27
- Stroke, non-fatal, percentage of subjects with at least one event [2]: 1.6%
- Cardiovascular death, hazard ratio [3]: 0.98
- Myocardial infarction, non-fatal, hazard ratio [3]: 0.74
- Stroke, non-fatal, hazard ratio [3]: 0.61
- Time to first MACE, hazard ratio (Table 4, MACE = CV death, non-fatal MI, non-fatal stroke, revascularisation, hospitalisation for UAP or heart failure, semaglutide vs placebo, Cox model): 0.74
- First MACE, N subjects experiencing at least one event [4]: 199
- First MACE, percentage of subjects experiencing at least one event [4]: 12.1%
- Coronary revascularisation, N subjects with at least one event (Table 4, semaglutide arms): 70
- Coronary revascularisation, percentage of subjects with at least one event (Table 4, semaglutide arms): 4.2%
- Hospitalisation for UAP, N subjects with at least one event (Table 4, semaglutide arms): 22
- Hospitalisation for UAP, percentage of subjects with at least one event (Table 4, semaglutide arms): 1.3%
- Hospitalisation for heart failure, N subjects with at least one event (Table 4, semaglutide arms): 59
- Hospitalisation for heart failure, percentage of subjects with at least one event (Table 4, semaglutide arms): 3.6%
- Peripheral revascularisation, N subjects with at least one event (Table 4, semaglutide arms): 16
- Peripheral revascularisation, percentage of subjects with at least one event (Table 4, semaglutide arms): 1.0%
- Coronary revascularisation, hazard ratio [5]: 0.68
- Hospitalisation for UAP, hazard ratio [5]: 0.82
- Hospitalisation for heart failure, hazard ratio [5]: 1.11
- Peripheral revascularisation, hazard ratio [5]: 0.63
- Cardiovascular death, N subjects [6]: 37
- Cardiovascular death, percentage of subjects [6]: 2.2%
- Myocardial infarction, non-fatal, N subjects [6]: 46
- Myocardial infarction, non-fatal, percentage of subjects [6]: 2.8%
- Stroke, non-fatal, N subjects [6]: 25
- Stroke, non-fatal, percentage of subjects [6]: 1.5%
- First MACE, N subjects experiencing at least one event [7]: 108
- First MACE, percentage of subjects experiencing at least one event [7]: 6.6%
- Time to first MACE, hazard ratio (Table 5, MACE = cardiovascular death, non-fatal MI, non-fatal stroke, all subjects, semaglutide vs placebo, Cox model): 0.74
- Time to first MACE, hazard ratio (Table 5 subgroup BMI >30 kg/m^2, MACE = CV death, non-fatal MI, non-fatal stroke, vs placebo): 0.84
- First MACE, N subjects with at least one event [8]: 69
- First MACE, percentage of subjects with at least one event [8]: 6.6%
- Time to first MACE, hazard ratio (Table 5 subgroup BMI ≤30 kg/m^2, MACE = CV death, non-fatal MI, non-fatal stroke, vs placebo): 0.58
- First MACE, N subjects with at least one event [9]: 39
- First MACE, percentage of subjects with at least one event [9]: 6.6%
- Time to first MACE, hazard ratio (Table 5 subgroup Ethnic origin: Asian, MACE = CV death, non-fatal MI, non-fatal stroke, vs placebo): 0.58
- First MACE, N subjects with at least one event [10]: 2
- First MACE, percentage of subjects with at least one event [10]: 5.7%
- Time to first MACE, hazard ratio (Table 5 subgroup Ethnic origin: Black or African-American, MACE = CV death, non-fatal MI, non-fatal stroke, vs placebo): 0.72
- First MACE, N subjects with at least one event [11]: 5
- First MACE, percentage of subjects with at least one event [11]: 4.6%
- Time to first MACE, hazard ratio (Table 5 subgroup Ethnic origin: Other, MACE = CV death, non-fatal MI, non-fatal stroke, vs placebo): 0.46
- First MACE, N subjects with at least one event [12]: 93
- First MACE, percentage of subjects with at least one event [12]: 6.7%
- Time to first MACE, hazard ratio (Table 5 subgroup Ethnic origin: White, MACE = CV death, non-fatal MI, non-fatal stroke, vs placebo): 0.76
- First MACE, N subjects with at least one event [13]: 8
- First MACE, percentage of subjects with at least one event [13]: 6.6%
- Time to first MACE, hazard ratio (Table 5 subgroup Heart failure NYHA class I or no heart failure, MACE = CV death, non-fatal MI, non-fatal stroke, vs placebo): 0.64
- First MACE, N subjects with at least one event [14]: 73
- First MACE, percentage of subjects with at least one event [14]: 5.4%
- Time to first MACE, hazard ratio (Table 5 subgroup Heart failure NYHA class II or III, MACE = CV death, non-fatal MI, non-fatal stroke, vs placebo): 1.03
- First MACE, N subjects with at least one event [15]: 35
- First MACE, percentage of subjects with at least one event [15]: 12.3%
- Time to first MACE, hazard ratio (Table 5 subgroup Sex: Female, MACE = CV death, non-fatal MI, non-fatal stroke, vs placebo): 0.84
- First MACE, N subjects with at least one event [16]: 35
- First MACE, percentage of subjects with at least one event [16]: 5.5%
- Time to first MACE, hazard ratio (Table 5 subgroup Sex: Male, MACE = CV death, non-fatal MI, non-fatal stroke, vs placebo): 0.68
- First MACE, N subjects with at least one event [17]: 73
- First MACE, percentage of subjects with at least one event [17]: 7.2%
- First MACE, N subjects with at least one event (Table 6, 0.5 mg semaglutide once weekly arm): 59
- Time to first MACE, hazard ratio (Table 6, 0.5 mg semaglutide once weekly arm vs its placebo, MACE = CV death, non-fatal MI, non-fatal stroke): 0.77
- First MACE, N subjects with at least one event (Table 6, 1.0 mg semaglutide once weekly arm): 49
- Time to first MACE, hazard ratio (Table 6, 1.0 mg semaglutide once weekly arm vs its placebo, MACE = CV death, non-fatal MI, non-fatal stroke): 0.71
- Effect on reducing cardiovascular disease (overall conclusion of the trial, more pronounced in some subgroups): surprisingly good effect on reducing cardiovascular disease
